The values below are quoted from earlier work in patent US8592424B2, “Topical regional neuro-affective therapy” (Afgin Pharma LLC, priority 2008, dated 2013).

Structures can show the parent of a compound that is named as a salt.

Series [1] addresses dopamine D1 receptor (Homo sapiens, UniProt P21728). Particulars: in vitro tests.
The target of series [2] is D4 dopamine receptor (Homo sapiens, UniProt P21917). Conditions: in vitro tests.
Series [3] concerns the target D3 dopamine receptor (Homo sapiens, UniProt P35462). Particulars: in vitro tests.
The subject of series [4] is patients, some with impotence with erectile dysfunction. Conditions: apomorphine injections, observed and reported.
Series [5] relates to serotonin receptors. Particulars: in vitro tests.
Series [6] has as its system patients with advanced Parkinson's disease, "off periods".
The target in series [7] is D2 dopamine receptor (Homo sapiens, UniProt P14416). Conditions: in vitro tests.
Sequence of D2 dopamine receptor (P14416 whole entry): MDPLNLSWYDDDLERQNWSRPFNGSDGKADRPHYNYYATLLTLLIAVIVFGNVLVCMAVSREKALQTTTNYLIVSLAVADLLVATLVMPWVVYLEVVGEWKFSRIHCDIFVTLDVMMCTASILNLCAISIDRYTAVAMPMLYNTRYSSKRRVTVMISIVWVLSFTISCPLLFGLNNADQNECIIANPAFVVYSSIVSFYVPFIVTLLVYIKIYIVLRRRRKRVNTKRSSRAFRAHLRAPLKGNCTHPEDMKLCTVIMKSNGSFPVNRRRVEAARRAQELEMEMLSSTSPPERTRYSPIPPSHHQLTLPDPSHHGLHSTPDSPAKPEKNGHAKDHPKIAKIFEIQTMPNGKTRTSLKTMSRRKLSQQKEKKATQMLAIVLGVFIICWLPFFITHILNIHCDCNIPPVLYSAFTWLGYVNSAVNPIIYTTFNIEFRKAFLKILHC
Series [8] deals with alpha-adrenergic receptors. Conditions: in vitro tests; some alpha-adrenergic receptors.
The mark [9] stands for this setting: reported clinical trials, despite using Tigan.

Sequence of D4 dopamine receptor (P21917 whole entry): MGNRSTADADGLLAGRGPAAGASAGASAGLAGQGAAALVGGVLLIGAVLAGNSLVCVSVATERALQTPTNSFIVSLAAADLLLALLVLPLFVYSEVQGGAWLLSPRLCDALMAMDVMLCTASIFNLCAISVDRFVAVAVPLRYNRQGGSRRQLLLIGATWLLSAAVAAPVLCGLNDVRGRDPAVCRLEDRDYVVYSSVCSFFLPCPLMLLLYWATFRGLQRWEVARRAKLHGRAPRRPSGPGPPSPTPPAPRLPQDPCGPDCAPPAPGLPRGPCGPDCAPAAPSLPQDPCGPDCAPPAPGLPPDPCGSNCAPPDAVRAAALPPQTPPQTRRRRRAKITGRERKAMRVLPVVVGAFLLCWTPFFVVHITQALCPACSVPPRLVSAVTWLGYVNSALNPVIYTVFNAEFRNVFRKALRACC
Sequence of dopamine D1 receptor (P21728 whole entry): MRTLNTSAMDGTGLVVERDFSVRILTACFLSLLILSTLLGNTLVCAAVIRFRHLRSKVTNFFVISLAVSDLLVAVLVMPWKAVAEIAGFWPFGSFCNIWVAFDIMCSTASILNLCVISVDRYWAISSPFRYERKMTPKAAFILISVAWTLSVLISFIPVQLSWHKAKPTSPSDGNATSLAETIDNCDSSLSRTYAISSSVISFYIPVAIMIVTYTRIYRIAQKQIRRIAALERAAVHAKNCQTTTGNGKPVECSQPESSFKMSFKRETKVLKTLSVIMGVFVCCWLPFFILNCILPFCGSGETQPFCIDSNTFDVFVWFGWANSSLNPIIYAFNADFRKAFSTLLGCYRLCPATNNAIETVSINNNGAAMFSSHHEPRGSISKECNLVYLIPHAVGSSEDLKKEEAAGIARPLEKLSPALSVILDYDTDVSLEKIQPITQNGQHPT
Sequence of D3 dopamine receptor (P35462 whole entry): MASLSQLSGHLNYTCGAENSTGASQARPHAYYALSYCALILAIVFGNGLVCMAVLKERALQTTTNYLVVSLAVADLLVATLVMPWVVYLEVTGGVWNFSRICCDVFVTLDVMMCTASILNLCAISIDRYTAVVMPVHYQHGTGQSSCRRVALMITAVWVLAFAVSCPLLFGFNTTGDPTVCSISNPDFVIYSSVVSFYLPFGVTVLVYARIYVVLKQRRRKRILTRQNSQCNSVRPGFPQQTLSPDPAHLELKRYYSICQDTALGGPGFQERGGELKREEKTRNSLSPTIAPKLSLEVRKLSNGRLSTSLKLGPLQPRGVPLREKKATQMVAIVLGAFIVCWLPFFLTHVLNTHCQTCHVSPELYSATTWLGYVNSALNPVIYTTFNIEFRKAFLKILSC

As for `CN1CCc2cccc3c2[C@H]1Cc1ccc(O)c(O)c1-3` [Apomorphine hydrochloride], the solubility in water entry (at 80 degrees Celsius) is “soluble”. Further, the affinity result in series [1] was “low”; in series [2], “high”; in [3], “moderate”; in series [5] it was “low”; in [7], “moderate”; in [8], “moderate”. Further, the “effect on sexual function” value in series [4] was “improvement in sexual function”. Also, in [6] (oral and injectible forms), the “other commonly reported adverse events in clinical trials” value is “dizziness, yawning, somnolence, rhinorrhea, sweating, flushing, pallor, hallucinations, edema, and chest pain”. Moreover, in series [6] (setting [9]), the patients experiencing nausea is 31%. Also, in series [6] (setting [9]), the patients experiencing vomiting is 11%. In addition, in [6] (subcutaneous injection, reported), the “time to take effect” value was 10 to 15 min.

Turning to `c1cnc2cc3c(cc2n1)[C@@H]1CNC[C@H]3C1` [varenicline], the water solubility result was “high”.
